Experimental data from patent US9409905B2, “Antibacterial compounds and methods for use” (PTC THERAPEUTICS, INC., priority 2011, dated 2016).
In brackets after ≈: the same amount, converted by molar mass.

Experiments:
[1] = tested on: Escherichia coli (E. coli) BAS849; experiment: Antibacterial activity, microbroth dilution MIC (Table 1); assay type: cell-based; conditions: microbroth dilution, super sensitive Gram-negative E. coli BAS849, read-out: MIC, BAS849
In short: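 Broth microdilution against S. aureus 29213, E. coli 25922 and hypersensitive E. coli BAS849. MIC in μg/mL is the lowest drug concentration preventing macroscopically visible growth under test conditions.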

[2] = tested on: Staphylococcus aureus (S. aureus) 29213; experiment: as above; assay type: cell-based; conditions: microbroth dilution, Gram-positive S. aureus 29213, read-out: MIC, 29213
In short: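 MIC (μg/mL) is taken as the lowest concentration with no macroscopically visible growth. Strains tested by microbroth dilution: Gram-positive S. aureus 29213, control Gram-negative E. coli 25922, and super-sensitive E. coli BAS849.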

[3] = tested on: E. coli LZ3111; experiment: Antibacterial activity, MIC, quinolone resistant strain (Table 2); assay type: cell-based; conditions: Escherichia coli, LZ3111, read-out: MIC LZ3111
In short: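 Microbroth dilution method; MIC (μg/mL) is the lowest drug concentration preventing macroscopically visible growth under test conditions.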

[4] = tested on: E. coli 25922; experiment: Antibacterial activity, microbroth dilution MIC (Table 1); assay type: cell-based, Escherichia coli; conditions: Escherichia coli; microbroth dilution; control Gram-negative E. coli 25922 strain; read-out: MIC, 25922
In short: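 MIC (μg/mL) read as lowest concentration with no macroscopically visible growth; microbroth dilution format. E. coli 25922 served as control Gram-negative strain.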

Row | SMILES | MIC [1] [µg/mL] | MIC [2] [µg/mL] | MIC [3] [µg/mL] | MIC [4] [µg/mL]
1 | CCc1c(-c2ccc3c(c2)cc(CNCCNC)n3C)[nH]c(=O)c(C(=O)O)c1O [Cpd 204, 5-ethyl-4-hydroxy-6-(1-methyl-2-((2-(methylamino)ethylamino)methyl)-1H-indol-5-yl)-2-oxo-1,2-dihydropyridine-3-carboxylic acid] | 1 to 3.5 (≈ 2.51 to 8.78 µM) | 12.5 to 150 (≈ 31.4 to 376 µM) | 12.5 to 150 (≈ 31.4 to 376 µM) | 3.5 to 12.5 (≈ 8.78 to 31.4 µM)
2 | CCc1c(-c2ccc3c(c2)cc(CNCCN)n3C)[nH]c(=O)c(C(=O)O)c1O [Cpd 205, 6-(2-((2-aminoethylamino)methyl)-1-methyl-1H-indol-5-yl)-5-ethyl-4-hydroxy-2-oxo-1,2-dihydropyridine-3-carboxylic acid] | 1 to 3.5 (≈ 2.6 to 9.1 µM) | 12.5 to 150 (≈ 32.5 to 390 µM) | 12.5 to 150 (≈ 32.5 to 390 µM) | 12.5 to 150 (≈ 32.5 to 390 µM)
3 | CCc1c(-c2ccc3c(c2)cc(CN2CC(N(C)Cc4ccccc4)C2)n3C)[nH]c(=O)c(C(=O)O)c1O [Cpd 206, 6-(2-((3-(benzyl(methyl)amino)azetidin-1-yl)methyl)-1-methyl-1H-indol-5-yl)-5-ethyl-4-hydroxy-2-oxo-1,2-dihydropyridine-3-carboxylic acid] | < 1 | 3.5 to 12.5 (≈ 6.99 to 25 µM) | 12.5 to 150 (≈ 25 to 300 µM) | 3.5 to 12.5 (≈ 6.99 to 25 µM)
4 | CCc1c(-c2ccc3c(c2)cc(CN2CC(N(C)CCN(C)C)C2)n3C)[nH]c(=O)c(C(=O)O)c1O [Cpd 207, 6-(2-((3-((2-(dimethylamino)ethyl)(methyl)amino)azetidin-1-yl)methyl)-1-methyl-1H-indol-5-yl)-5-ethyl-4-hydroxy-2-oxo-1,2-dihydropyridine-3-carboxylic acid] | 1 to 3.5 (≈ 2.08 to 7.27 µM) | 12.5 to 150 (≈ 26 to 311 µM) | 12.5 to 150 (≈ 26 to 311 µM) | 12.5 to 150 (≈ 26 to 311 µM)
5 | CCc1c(-c2ccc3c(c2)cc(CN(C)C2CC2)n3C)[nH]c(=O)c(C(=O)O)c1O.Cl [Cpd 212, 6-(2-((cyclopropyl(methyl)amino)methyl)-1-methyl-1H-indol-5-yl)-5-ethyl-4-hydroxy-2-oxo-1,2-dihydropyridine-3-carboxylic acid hydrochloride] | < 1 | 1 to 3.5 | 12.5 to 150 | 1 to 3.5
6 | CCc1c(-c2ccc3c(c2)cc(CNc2ccccc2)n3C)[nH]c(=O)c(C(=O)O)c1O [Cpd 213, 5-ethyl-4-hydroxy-6-(1-methyl-2-((phenylamino)methyl)-1H-indol-5-yl)-2-oxo-1,2-dihydropyridine-3-carboxylic acid] | < 1 | 1 to 3.5 (≈ 2.4 to 8.38 µM) | 12.5 to 150 (≈ 29.9 to 359 µM) | 12.5 to 150 (≈ 29.9 to 359 µM)
7 | CCc1c(-c2ccc3c(c2)cc(CN[C@H](C)c2ccccc2)n3C)[nH]c(=O)c(C(=O)O)c1O.Cl [Cpd 215, (R)-5-ethyl-4-hydroxy-6-(1-methyl-2-((1-phenylethylamino)methyl)-1H-indol-5-yl)-2-oxo-1,2-dihydropyridine-3-carboxylic acid hydrochloride] | < 1 | 1 to 3.5 | 12.5 to 150 | 1 to 3.5
8 | CCc1c(-c2ccc3c(c2)cc(CN[C@@H](C)c2ccccc2)n3C)[nH]c(=O)c(C(=O)O)c1O.Cl [Cpd 216, (S)-5-ethyl-4-hydroxy-6-(1-methyl-2-((1-phenylethylamino)methyl)-1H-indol-5-yl)-2-oxo-1,2-dihydropyridine-3-carboxylic acid hydrochloride] | < 1 | 1 to 3.5 | 12.5 to 150 | 1 to 3.5
9 | CCc1c(-c2ccc3c(c2)cc(CNC(C)(C)c2ccccc2)n3C)[nH]c(=O)c(C(=O)O)c1O.Cl [Cpd 217, 5-ethyl-4-hydroxy-6-(1-methyl-2-((2-phenylpropan-2-ylamino)methyl)-1H-indol-5-yl)-2-oxo-1,2-dihydropyridine-3-carboxylic acid hydrochloride] | < 1 | 1 to 3.5 | 12.5 to 150 | 1 to 3.5
10 | CCc1c(-c2ccc3c(c2)cc(CN(C)Cc2ccccc2)n3C)[nH]c(=O)c(C(=O)O)c1O.Cl [Cpd 218, 6-(2-((benzyl(methyl)amino)methyl)-1-methyl-1H-indol-5-yl)-5-ethyl-4-hydroxy-2-oxo-1,2-dihydropyridine-3-carboxylic acid hydrochloride] | < 1 | 3.5 to 12.5 | 12.5 to 150 | 12.5 to 150
11 | CCc1c(-c2ccc3c(c2)cc(CNCC2CCCCC2)n3C)[nH]c(=O)c(C(=O)O)c1O.Cl [Cpd 222, 6-(2-((cyclohexylmethylamino)methyl)-1-methyl-1H-indol-5-yl)-5-ethyl-4-hydroxy-2-oxo-1,2-dihydropyridine-3-carboxylic acid hydrochloride] | < 1 | 1 to 3.5 | 12.5 to 150 | < 1
12 | CCc1c(-c2ccc3c(c2)cc(CN(C)Cc2cccnc2)n3C)[nH]c(=O)c(C(=O)O)c1O.Cl [Cpd 224, 5-ethyl-4-hydroxy-6-(1-methyl-2-((methyl(pyridin-3-ylmethyl)amino)methyl)-1H-indol-5-yl)-2-oxo-1,2-dihydropyridine-3-carboxylic acid hydrochloride] | < 1 | 3.5 to 12.5 | 12.5 to 150 | 1 to 3.5
13 | CCc1c(-c2ccc3c(c2)cc(CN(C)Cc2ccncc2)n3C)[nH]c(=O)c(C(=O)O)c1O.Cl [Cpd 225, 5-ethyl-4-hydroxy-6-(1-methyl-2-((methyl(pyridin-4-ylmethyl)amino)methyl)-1H-indol-5-yl)-2-oxo-1,2-dihydropyridine-3-carboxylic acid hydrochloride] | < 1 | 3.5 to 12.5 | 12.5 to 150 | 3.5 to 12.5
14 | CCc1c(-c2ccc3c(c2)cc(CNC(C)c2ccncc2)n3C)[nH]c(=O)c(C(=O)O)c1O.Cl (centres unmarked) [Cpd 226, 5-ethyl-4-hydroxy-6-(1-methyl-2-((1-(pyridin-4-yl)ethylamino)methyl)-1H-indol-5-yl)-2-oxo-1,2-dihydropyridine-3-carboxylic acid hydrochloride] | < 1 | 1 to 3.5 | 12.5 to 150 | 1 to 3.5
15 | CCc1c(-c2ccc3c(c2)cc(CNCC(C)(C)C)n3C)[nH]c(=O)c(C(=O)O)c1O.Cl [Cpd 237, 5-ethyl-4-hydroxy-6-(1-methyl-2-((neopentylamino)methyl)-1H-indol-5-yl)-2-oxo-1,2-dihydropyridine-3-carboxylic acid hydrochloride] | < 1 | 3.5 to 12.5 | 12.5 to 150 | 1 to 3.5
16 | CCc1c(-c2ccc3c(c2)cc(CNC(C)c2cccnc2)n3C)[nH]c(=O)c(C(=O)O)c1O.Cl (centres unmarked) [Cpd 242, 5-ethyl-4-hydroxy-6-(1-methyl-2-((1-(pyridin-3-yl)ethylamino)methyl)-1H-indol-5-yl)-2-oxo-1,2-dihydropyridine-3-carboxylic acid hydrochloride] | < 1 | 1 to 3.5 | 12.5 to 150 | 1 to 3.5
17 | CCc1c(-c2ccc3c(c2)cc(CNC2CNC2)n3C)[nH]c(=O)c(C(=O)O)c1O.Cl.Cl [Cpd 244, 6-(2-((azetidin-3-ylamino)methyl)-1-methyl-1H-indol-5-yl)-5-ethyl-4-hydroxy-2-oxo-1,2-dihydropyridine-3-carboxylic acid dihydrochloride] | 1 to 3.5 | 12.5 to 150 | 12.5 to 150 | 12.5 to 150
18 | CCc1c(-c2ccc3c(c2)cc(CNC2CN(C)C2)n3C)[nH]c(=O)c(C(=O)O)c1O.Cl.Cl [Cpd 246, 5-ethyl-4-hydroxy-6-(1-methyl-2-((1-methylazetidin-3-ylamino)methyl)-1H-indol-5-yl)-2-oxo-1,2-dihydropyridine-3-carboxylic acid dihydrochloride] | 1 to 3.5 | 12.5 to 150 | 3.5 to 12.5 | 12.5 to 150
19 | CCc1c(-c2ccc3c(c2)cc(CN2CCC(F)(F)CC2)n3C)[nH]c(=O)c(C(=O)O)c1O [Cpd 249, 6-(2-((4,4-difluoropiperidin-1-yl)methyl)-1-methyl-1H-indol-5-yl)-5-ethyl-4-hydroxy-2-oxo-1,2-dihydropyridine-3-carboxylic acid] | < 1 | 1 to 3.5 (≈ 2.24 to 7.86 µM) | 12.5 to 150 (≈ 28.1 to 337 µM) | 12.5 to 150 (≈ 28.1 to 337 µM)
20 | CCc1c(-c2ccc3c(c2)cc(CN2CCCCC2C(F)(F)F)n3C)[nH]c(=O)c(C(=O)O)c1O (centres unmarked) [Cpd 258, 5-ethyl-4-hydroxy-6-(1-methyl-2-((2-(trifluoromethyl)piperidin-1-yl)methyl)-1H-indol-5-yl)-2-oxo-1,2-dihydropyridine-3-carboxylic acid] | < 1 | 3.5 to 12.5 (≈ 7.33 to 26.2 µM) | 12.5 to 150 (≈ 26.2 to 314 µM) | 12.5 to 150 (≈ 26.2 to 314 µM)
21 | CCc1c(-c2ccc3c(c2)cc(CN2CCCCC2CCOC)n3C)[nH]c(=O)c(C(=O)O)c1O (centres unmarked) [Cpd 259, 5-ethyl-4-hydroxy-6-(2-((2-(2-methoxyethyl)piperidin-1-yl)methyl)-1-methyl-1H-indol-5-yl)-2-oxo-1,2-dihydropyridine-3-carboxylic acid] | < 1 | 3.5 to 12.5 (≈ 7.49 to 26.7 µM) | 12.5 to 150 (≈ 26.7 to 321 µM) | 3.5 to 12.5 (≈ 7.49 to 26.7 µM)
22 | CCc1c(-c2ccc3c(c2)cc(CN2CCCCC2CCCOC)n3C)[nH]c(=O)c(C(=O)O)c1O (centres unmarked) [Cpd 260, 5-ethyl-4-hydroxy-6-(2-((2-(3-methoxypropyl)piperidin-1-yl)methyl)-1-methyl-1H-indol-5-yl)-2-oxo-1,2-dihydropyridine-3-carboxylic acid] | < 1 | 3.5 to 12.5 (≈ 7.27 to 26 µM) | 12.5 to 150 (≈ 26 to 311 µM) | 3.5 to 12.5 (≈ 7.27 to 26 µM)
23 | CCc1c(-c2ccc3c(c2)cc(CNC2CCNCC2)n3C)[nH]c(=O)c(C(=O)O)c1O [Cpd 263, 5-ethyl-4-hydroxy-6-(1-methyl-2-((piperidin-4-ylamino)methyl)-1H-indol-5-yl)-2-oxo-1,2-dihydropyridine-3-carboxylic acid] | 3.5 to 12.5 (≈ 8.24 to 29.4 µM) | 12.5 to 150 (≈ 29.4 to 353 µM) | 12.5 to 150 (≈ 29.4 to 353 µM) | 12.5 to 150 (≈ 29.4 to 353 µM)
